System: 521955-158-R2-J5-PDC complex spheroid growth, % test/control
Test: Anticancer human tumor 521955-158-R2-J5-PDC patient-derived pancreatic carcinoma cell line growth inhibition [Asc]
Conditions: for IC50: curve of first compound; for viability, T/C: stronger effect = lower value; active = viability on the fitted dose curve at most 10% of control; inactive = the rest
Method in brief: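 Spheroid model: tumor line + HUVEC + hMSC. Single agents and combinations; top conc. at/near clinical Cmax (10 microM if undetermined), half-log dilutions. DMSO stocks at 800-fold test concentration.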

[1] = second compound 0.01 µM, first compound 0.0316 µM
[2] = second compound 0.01 µM, first compound 0.1 µM
[3] = second compound 0.0316 µM, first compound 0.0316 µM
[4] = second compound 0.0316 µM, first compound 0.1 µM
[5] = second compound 0.1 µM, first compound 0.0316 µM
[6] = second compound 0.1 µM, first compound 0.1 µM
[7] = second compound 0.316 µM, first compound 0.0316 µM
[8] = second compound 0.316 µM, first compound 0.1 µM
[9] = second compound 1 µM, first compound 0.0316 µM
[10] = second compound 1 µM, first compound 0.1 µM
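Note: spheroids exposed to agents for 7 days before readout.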

Cc1nc(N2CCC3(CC2)COC(C)C3N)c(CO)nc1Sc1ccnc(N)c1Cl (stereo not given) + CCN1C(C(=O)NC23CCC(C(=O)O)(CC2)CC3)C(c2cccc(Cl)c2F)C2(C(=O)Nc3cc(Cl)ccc32)C12CCCCC2
> 3000 nM: IC50 (second compound 0.0949 µM) | IC50 (second compound 0.949 µM) | IC50 (second compound 3 µM)
1500 nM: IC50 (second compound 0.03 µM)
inactive: viability, T/C (second compound 0.03 µM, first compound 0.00949 µM) 75.7% | viability, T/C (second compound 0.03 µM, first compound 0.03 µM) 75.9% | viability, T/C (second compound 0.03 µM, first compound 0.0949 µM) 65.8% | viability, T/C (second compound 0.03 µM, first compound 0.3 µM) 60.8% | viability, T/C (second compound 0.03 µM, first compound 0.949 µM) 47.5% | viability, T/C (second compound 0.03 µM, first compound 3 µM) 50.3% | viability, T/C (second compound 0.0949 µM, first compound 0.00949 µM) 88.3% | viability, T/C (second compound 0.0949 µM, first compound 0.03 µM) 95.6% | viability, T/C (second compound 0.0949 µM, first compound 0.0949 µM) 70.2% | viability, T/C (second compound 0.0949 µM, first compound 0.3 µM) 80.2% | viability, T/C (second compound 0.0949 µM, first compound 0.949 µM) 70.8% | viability, T/C (second compound 0.0949 µM, first compound 3 µM) 57.6% | viability, T/C (second compound 0.3 µM, first compound 0.00949 µM) 88.5% | viability, T/C (second compound 0.3 µM, first compound 0.03 µM) 87.1% | viability, T/C (second compound 0.3 µM, first compound 0.0949 µM) 71.2% | viability, T/C (second compound 0.3 µM, first compound 0.3 µM) 59.2% | viability, T/C (second compound 0.3 µM, first compound 0.949 µM) 62% | viability, T/C (second compound 0.3 µM, first compound 3 µM) 37.8% | viability, T/C (second compound 0.949 µM, first compound 0.00949 µM) 97.7% | viability, T/C (second compound 0.949 µM, first compound 0.03 µM) 87.8% | viability, T/C (second compound 0.949 µM, first compound 0.0949 µM) 85% | viability, T/C (second compound 0.949 µM, first compound 0.3 µM) 67.2% | viability, T/C (second compound 0.949 µM, first compound 0.949 µM) 68.1% | viability, T/C (second compound 0.949 µM, first compound 3 µM) 69.5% | viability, T/C (second compound 3 µM, first compound 0.00949 µM) 139% | viability, T/C (second compound 3 µM, first compound 0.03 µM) 122% | viability, T/C (second compound 3 µM, first compound 0.0949 µM) 101% | viability, T/C (second compound 3 µM, first compound 0.3 µM) 96.6% | viability, T/C (second compound 3 µM, first compound 0.949 µM) 90.6% | viability, T/C (second compound 3 µM, first compound 3 µM) 99%
1310 nM: IC50 (second compound 0.3 µM)

Cn1ncnc1[C@H]1c2n[nH]c(=O)c3cc(F)cc(c23)N[C@@H]1c1ccc(F)cc1 + CNC(C)C(=O)NC1CN(S(=O)(=O)c2cccc(S(=O)(=O)N3CCC4CCC(C(=O)NC(c5ccccc5)c5ccccc5)N4C(=O)C(NC(=O)C(C)NC)C3)c2)CCC2CCC(C(=O)NC(c3ccccc3)c3ccccc3)N2C1=O
> 100 nM: IC50 (second compound 0.01 µM) | IC50 (second compound 0.0316 µM) | IC50 (second compound 0.1 µM) | IC50 (second compound 0.316 µM) | IC50 (second compound 1 µM)
inactive: viability, T/C (second compound 0.01 µM, first compound 0.000316 µM) 103% | viability, T/C (second compound 0.01 µM, first compound 0.001 µM) 103% | viability, T/C (second compound 0.01 µM, first compound 0.00316 µM) 85.7% | viability, T/C (second compound 0.01 µM, first compound 0.01 µM) 65.6% | viability, T/C [1] 65.4% | viability, T/C [2] 71.9% | viability, T/C (second compound 0.0316 µM, first compound 0.000316 µM) 103% | viability, T/C (second compound 0.0316 µM, first compound 0.001 µM) 102% | viability, T/C (second compound 0.0316 µM, first compound 0.00316 µM) 89.6% | viability, T/C (second compound 0.0316 µM, first compound 0.01 µM) 78% | viability, T/C [3] 62.3% | viability, T/C [4] 64.1% | viability, T/C (second compound 0.1 µM, first compound 0.000316 µM) 80.8% | viability, T/C (second compound 0.1 µM, first compound 0.001 µM) 108% | viability, T/C (second compound 0.1 µM, first compound 0.00316 µM) 91% | viability, T/C (second compound 0.1 µM, first compound 0.01 µM) 76.5% | viability, T/C [5] 86.9% | viability, T/C [6] 56.2% | viability, T/C (second compound 0.316 µM, first compound 0.000316 µM) 100% | viability, T/C (second compound 0.316 µM, first compound 0.001 µM) 83% | viability, T/C (second compound 0.316 µM, first compound 0.00316 µM) 96.4% | viability, T/C (second compound 0.316 µM, first compound 0.01 µM) 79.2% | viability, T/C [7] 73.4% | viability, T/C [8] 63.2% | viability, T/C (second compound 1 µM, first compound 0.000316 µM) 108% | viability, T/C (second compound 1 µM, first compound 0.001 µM) 75.1% | viability, T/C (second compound 1 µM, first compound 0.00316 µM) 102% | viability, T/C (second compound 1 µM, first compound 0.01 µM) 89.5% | viability, T/C [9] 68.3% | viability, T/C [10] 86.6%

O=C(c1cc(Cc2n[nH]c(=O)c3ccccc23)ccc1F)N1CCN(C(=O)C2CC2)CC1 + CNC(C)C(=O)NC1CN(S(=O)(=O)c2cccc(S(=O)(=O)N3CCC4CCC(C(=O)NC(c5ccccc5)c5ccccc5)N4C(=O)C(NC(=O)C(C)NC)C3)c2)CCC2CCC(C(=O)NC(c3ccccc3)c3ccccc3)N2C1=O
inactive: viability, T/C [1] 74.8% | viability, T/C [2] 92.3% | viability, T/C (second compound 0.01 µM, first compound 0.316 µM) 60.6% | viability, T/C (second compound 0.01 µM, first compound 1 µM) 66.1% | viability, T/C (second compound 0.01 µM, first compound 3.16 µM) 73.4% | viability, T/C (second compound 0.01 µM, first compound 10 µM) 64.3% | viability, T/C [3] 66.8% | viability, T/C [4] 77.8% | viability, T/C (second compound 0.0316 µM, first compound 0.316 µM) 98.6% | viability, T/C (second compound 0.0316 µM, first compound 1 µM) 75.8% | viability, T/C (second compound 0.0316 µM, first compound 3.16 µM) 64.9% | viability, T/C (second compound 0.0316 µM, first compound 10 µM) 64.6% | viability, T/C [5] 71.8% | viability, T/C [6] 87.9% | viability, T/C (second compound 0.1 µM, first compound 0.316 µM) 76.4% | viability, T/C (second compound 0.1 µM, first compound 1 µM) 61.1% | viability, T/C (second compound 0.1 µM, first compound 3.16 µM) 74.6% | viability, T/C (second compound 0.1 µM, first compound 10 µM) 73.2% | viability, T/C [7] 89% | viability, T/C [8] 95.7% | viability, T/C (second compound 0.316 µM, first compound 0.316 µM) 82.1% | viability, T/C (second compound 0.316 µM, first compound 1 µM) 71.2% | viability, T/C (second compound 0.316 µM, first compound 3.16 µM) 71.5% | viability, T/C (second compound 0.316 µM, first compound 10 µM) 61.5% | viability, T/C [9] 73% | viability, T/C [10] 81.4% | viability, T/C (second compound 1 µM, first compound 0.316 µM) 78.8% | viability, T/C (second compound 1 µM, first compound 1 µM) 67.6% | viability, T/C (second compound 1 µM, first compound 3.16 µM) 62.5% | viability, T/C (second compound 1 µM, first compound 10 µM) 66.8%
> 10000 nM: IC50 (second compound 0.01 µM) | IC50 (second compound 0.0316 µM) | IC50 (second compound 0.1 µM) | IC50 (second compound 0.316 µM) | IC50 (second compound 1 µM)

Source: PubChem BioAssay AID1963430 (Molecular Pharmacology Branch, DTP, NCI, 2024)
